Data from patent US9822130B2, “Triazolo-pyrazinyl derivatives useful as soluble guanylate cyclase activators” (Merck Sharp & Dohme Corp., priority 2014, dated 2017).

Target: T1, sGC α1/β1 heterodimer stably expressed in CHO-K1 cell line (CHO-K1/sGC) (Homo sapiens, UniProt Q02108+Q02153)
T1 construct: expressed in transfected cells
T1 sequence (Q02108 1-690): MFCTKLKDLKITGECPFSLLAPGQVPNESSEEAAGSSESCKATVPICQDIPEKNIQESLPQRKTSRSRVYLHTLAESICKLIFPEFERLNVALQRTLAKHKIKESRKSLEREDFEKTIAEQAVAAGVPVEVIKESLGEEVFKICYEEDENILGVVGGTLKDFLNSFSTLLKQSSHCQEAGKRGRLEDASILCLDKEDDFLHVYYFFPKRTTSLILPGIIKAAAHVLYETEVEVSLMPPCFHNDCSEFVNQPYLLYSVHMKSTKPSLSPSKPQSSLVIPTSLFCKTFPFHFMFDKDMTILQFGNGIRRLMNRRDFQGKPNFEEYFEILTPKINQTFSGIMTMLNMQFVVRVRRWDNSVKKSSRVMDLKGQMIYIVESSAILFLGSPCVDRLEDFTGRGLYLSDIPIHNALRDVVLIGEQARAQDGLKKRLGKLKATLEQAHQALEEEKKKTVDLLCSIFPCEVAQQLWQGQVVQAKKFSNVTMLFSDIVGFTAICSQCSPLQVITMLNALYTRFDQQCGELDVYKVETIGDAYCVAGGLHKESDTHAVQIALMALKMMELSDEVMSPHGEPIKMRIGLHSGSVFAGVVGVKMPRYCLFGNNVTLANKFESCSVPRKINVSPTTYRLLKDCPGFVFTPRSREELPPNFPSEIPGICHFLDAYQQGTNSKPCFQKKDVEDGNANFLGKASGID
T1 sequence (Q02153 1-619): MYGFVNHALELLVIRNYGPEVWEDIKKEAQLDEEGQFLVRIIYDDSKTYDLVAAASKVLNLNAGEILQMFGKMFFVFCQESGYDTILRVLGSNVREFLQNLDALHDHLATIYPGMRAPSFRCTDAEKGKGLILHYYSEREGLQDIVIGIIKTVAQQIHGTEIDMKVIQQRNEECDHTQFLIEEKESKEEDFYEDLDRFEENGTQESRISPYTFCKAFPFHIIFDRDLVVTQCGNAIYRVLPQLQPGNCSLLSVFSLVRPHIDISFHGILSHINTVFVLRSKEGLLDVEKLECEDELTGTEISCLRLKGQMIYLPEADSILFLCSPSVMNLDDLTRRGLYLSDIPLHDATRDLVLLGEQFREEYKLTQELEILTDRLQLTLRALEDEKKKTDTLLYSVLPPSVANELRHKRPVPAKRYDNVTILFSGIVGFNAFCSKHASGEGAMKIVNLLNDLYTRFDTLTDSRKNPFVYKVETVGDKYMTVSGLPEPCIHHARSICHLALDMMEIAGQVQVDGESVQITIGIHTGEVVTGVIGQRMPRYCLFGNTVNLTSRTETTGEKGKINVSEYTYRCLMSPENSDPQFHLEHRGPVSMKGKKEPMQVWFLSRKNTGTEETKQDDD
Assay: Cell-based sGC Functional Assay (CASA Assay), cGMP generation
Conditions: CHO-K1/sGC cells, 1 hr at 37° C., cGMP by HTRF, 4P fit; presence or absence of 1 μM DETA-NO not given; read-out: IP (nM) (inflection point)
Source text: sGC is a heme-containing enzyme that converts GTP to secondary messenger cGMP. Increases in cGMP levels affect several physiological processes including vasorelaxation through multiple downstream pathways. […] Heme-dependent activators (HDAs) preferentially activate sGC containing a ferrous heme group. To determine the effect of sGC activators on enzyme activity, the CASA assay was developed to monitor the generation of cGMP in a cell line that stably expresses the heterodimeric sGC protein.
A CHO-K1 cell line stably expressing the sGC α1/β1 heterodimer was generated using a standard transfection protocol. CHO-K1 cells were transfected with plasmids pIREShyghsGCα1 and pIRESneo-hsGCβ1 simultaneously using FUGENE reagent. Clones that stably express both subunits were selected with hygromycin and neomycin for ˜2 weeks. Clone #7 was chosen for the assay and was designated CHO-K1/sGC. CHO-K1/sGC cells were maintained in F-K12 medium containing 10% heat-inactivated Fetal Bovine Serum (FBS), 100 μg/mL penicillin/streptomycin, 0.5 mg/mL hygromycin and 0.25 mg/mL G418. The cells were then cryopreserved in LN2. On the day of the assay, cells thawed and resuspended in EBSS Assay Buffer (Sigma, E3024) supplemented with 5 mM MgCl2, 10 mM HEPES (4-(2-hydroxyethyl)piperazine-1-ethanesulfonic acid) and 0.05% BSA (bovine serum albumin) (EAB) and cell density was then adjusted to 4×10^5/mL with EAB, IBMX (3-isobutyl-1-methylxanthin, 0.5 mM) was added to inhibit degradation of cGMP. Compounds were diluted from DMSO stock solutions and added to the assay at a final DMSO concentration of 2.5%. Cells were incubated with compounds in the presence and absence of 1 μM of Diethylenetriamine/nitric oxide adduct (DETA-NO; Sigma, 17018) for 1 hr at 37° C. At the end of the incubation period, the reaction was terminated and the cells were lysed with the detection reagents from Cisbio Kits. The level of intracellular cGMP was determined using an HTRF-based assay kit (CisBio, 62GM2PEC), which detects the displacement of a fluorescence labeled cGMP from its specific antibody. The cGMP produced by test compounds was directly compared to the maximum cGMP production (this value was set to equal 100% activation.) of the published sGC-HDA Compound A:
[drawing 300] (Example 1 in WO 2010/065275, published Jun. 10, 2010). The test compounds' activities were then expressed as a percentage of Compound A, the standard in every experiment. This percent activation was calculated either in the presence or absence of DETA-NO which was then plotted. IP and maximum fold induction was derived using ADA analysis software for 4P fit.
The compounds in the Examples of the instant invention had inflection points (IP) less than or equal to 10 μM and more particularly less than or equal to about 1 μM.

Row | SMILES | EC50
1 | Nc1nc(-c2cn3ncnc3c(CCC(F)(F)C(F)(F)F)n2)nc2c1C(c1ccc(C(F)(F)F)cn1)(C1CC1)C(=O)N2 (centres unmarked) [Example 15A, 4-amino-5-cyclopropyl-2-(8-(3,3,4,4,4-pentafluorobutyl)-[1,2,4]triazolo[1,5-a]pyrazin-6-yl)-5-(5-(trifluoromethyl)pyridin-2-yl)-5H-pyrrolo[2,3-d]pyrimidin-6(7H)-one] | 316 nM
2 | CC(C)n1cc(C2(C)C(=O)Nc3nc(-c4cn5ncnc5c(CCC(F)(F)C(F)(F)F)n4)nc(N)c32)nn1 (centres unmarked) [Example 20A, 4-amino-5-(1-isopropyl-1H-1,2,3-triazol-4-yl)-5-methyl-2-(8-(3,3,4,4,4-pentafluorobutyl)-[1,2,4]triazolo[1,5-a]pyrazin-6-yl)-5H-pyrrolo[2,3-d]pyrimidin-6(7H)-one] | 176 nM
3 | CC1(c2ccc(F)cn2)C(=O)Nc2nc(-c3cn4ncnc4c(CCCC(F)(F)F)n3)nc(N)c21 (centres unmarked) [Example 22B, 4-amino-5-(5-fluoropyridin-2-yl)-5-methyl-2-(8-(4,4,4-trifluorobutyl)-[1,2,4]triazolo[1,5-a]pyrazin-6-yl)-5H-pyrrolo[2,3-d]pyrimidin-6(7H)-one] | 38.3 nM
4 | C[C@@]1(c2ccc(F)cc2)C(=O)Nc2nc(-c3cn4ncnc4c(CCCC(F)(F)F)n3)nc(N)c21 [Example 23A, (S)-4-amino-5-(4-fluorophenyl)-5-mclhyl-2-(S-(4,4,4-trifluorobutyl)-[1,2,4]triazolo[1,5-a]pyrazin-6-yl)-5,7-dihydro-6H-pyrrolo[2,3-d]pyrimidin-6-one] | 29.6 nM
5 | CC1(c2ccc(C(F)(F)F)cc2)C(=O)Nc2nc(-c3cn4ncnc4c(CCCC(F)(F)F)n3)nc(N)c21 (centres unmarked) [Example 24B, 4-amino-5-methyl-2-(8-(4,4,4-trifluorobutyl)-[1,2,4]triazolo[1,5-a]pyrazin-6-yl)-5-(4-(trifluoromethyl)phenyl)-5H-pyrrolo[2,3-d]pyrimidin-6(7H)-one] | 27.1 nM
6 | CC1(c2ccc(C(F)(F)F)cn2)C(=O)Nc2nc(-c3cn4ncnc4c(CCCC(F)(F)F)n3)nc(N)c21 (centres unmarked) [Example 25B, 4-amino-5-methyl-2-(8-(4,4,4-trifluorobutyl)-[1,2,4]triazolo[1,5-a]pyrazin-6-yl)-5-(5-(trifluoromethyl)pyridin-2-yl)-5H-pyrrolo[2,3-d]pyrimidin-6(7H)-one] | 27 nM
7 | CC1(c2ccc(Cl)cn2)C(=O)Nc2nc(-c3cn4ncnc4c(CCCC(F)(F)F)n3)nc(N)c21 (centres unmarked) [Example 26A, 4-amino-5-(5-chloropyridin-2-yl)-5-methyl-2-(8-(4,4,4-trifluorobutyl)-[1,2,4]triazolo[1,5-a]pyrazin-6-yl)-5H-pyrrolo[2,3-d]pyriniidin-6(7H)-one] | 27.8 nM

Next, values leading:

Row | EC50 | SMILES
8 | 294 nM | Nc1nc(-c2cn3ncnc3c(CCC(F)(F)C(F)(F)F)n2)nc2c1C(c1cncc(F)c1)(C1CC1)C(=O)N2 (centres unmarked) [Example 8B, 4-amino-5-cyclopropyl-5-(5-fluoropyridin-3-yl)-2-(8-(3,3,4,4,4-pentafluorobutyl)-[1,2,4]triazolo[1,5-a]pyrazin-6-yl)-5H-pyrrolo[2,3-d]pyrimidin-6(7H)-one]
9 | 63 nM | CC1(c2cncc(F)c2)C(=O)Nc2nc(-c3cn4ncnc4c(CCC(F)(F)C(F)(F)F)n3)nc(N)c21 (centres unmarked) [Example 9A, 4-amino-5-(5-fluoropyridin-3-yl)-5-methyl-2-(8-(3,3,4,4,4-pentafluorobutyl)-[1,2,4]triazolo[1,5-a]pyrazin-6-yl)-5H-pyrrolo[2,3-d]pyrimidin-6(7H)-one]
10 | 15.8 nM | CC1(c2ccc(Cl)cc2)C(=O)Nc2nc(-c3cn4ncnc4c(CCC(F)(F)C(F)(F)F)n3)nc(N)c21 (centres unmarked) [Example 10A, 4-amino-5-(4-chlorophenyl)-5-methyl-2-(8-(3,3,4,4,4-pentafluorobutyl)-[1,2,4]triazolo[1,5-a]pyrazin-6-yl)-5H-pyrrolo[2,3-d]pyrimidin-6(7H)-one]
11 | 25.2 nM | CC1(c2ccccn2)C(=O)Nc2nc(-c3cn4ncnc4c(CCC(F)(F)C(F)(F)F)n3)nc(N)c21 (centres unmarked) [Example 11B, 4-amino-5-methyl-2-(8-(3,3,4,4,4-pentafluorobutyl)-[1,2,4]triazolo[1,5-a]pyrazin-6-yl)-5-(pyridin-2-yl)-5H-pyrrolo[2,3-d]pyrimidin-6(7H)-one]
12 | 11.1 nM | CC1(c2ccccc2)C(=O)Nc2nc(-c3cn4ncnc4c(CCC(F)(F)C(F)(F)F)n3)nc(N)c21 (centres unmarked) [Example 12B, 4-amino-5-methyl-2-(8-(3,3,4,4,4-pentafluorobutyl)-[1,2,4]triazolo[1,5-a]pyrazin-6-yl)-5-phenyl-5H-pyrrolo[2,3-d]pyrimidin-6(7H)-one]
13 | 80.6 nM | CC1(c2ccc(C3CC3)nc2)C(=O)Nc2nc(-c3cn4ncnc4c(CCC(F)(F)C(F)(F)F)n3)nc(N)c21 (centres unmarked) [Example 13B, 4-amino-5-(6-cyclopropylpyridin-3-yl)-5-methyl-2-(8-(3,3,4,4,4-pentafluorobutyl)-[1,2,4]triazolo[1,5-a]pyrazin-6-yl)-5H-pyrrolo[2,3-d]pyrimidin-6(7H)-one]
14 | 5.5 nM | CC1(c2cccc(F)c2)C(=O)Nc2nc(-c3cn4ncnc4c(CCC(F)(F)C(F)(F)F)n3)nc(N)c21 (centres unmarked) [Example 14B, 4-amino-5-(3-fluorophenyl)-5-methyl-2 (8-(3,3,4,4,4-pentafluorobutyl)-[1,2,4]triazolo[1,5-a]pyrazin-6-yl)-5H-pyrrolo[2,3-d]pyrimidin-6(7H)-one]
15 | 38.6 nM | CC1(c2ccc(C#N)cn2)C(=O)Nc2nc(-c3cn4ncnc4c(CCC(F)(F)C(F)(F)F)n3)nc(N)c21 (centres unmarked) [Example 18A, 6-(4-amino-5-methyl-6-oxo-2-(8-(3,3,4,4,4-pentafluorobutyl)-[1,2,4]triazolo[1,5-a]pyrazin-6-yl)-6,7-dihydro-5H-pyrrolo[2,3-d]pyrimidin-5-yl)nicotinonitrile]
16 | 14.7 nM | Cc1ccc(C2(C)C(=O)Nc3nc(-c4cn5ncnc5c(CCC(F)(F)C(F)(F)F)n4)nc(N)c32)nc1 (centres unmarked) [Example 19B, 4-amino-5-methyl-5-(5-methylpyridin-2-yl)-2-(8-(3,3,4,4,4-pentafluorobutyl)-[1,2,4]triazolo[1,5-a]pynizin-6-yl)-5H-pyrrolo[2,3-d]pyrimidin-6(7H)-one]

Same assay, conditions: CHO-K1/sGC cells, 1 hr at 37° C., cGMP by HTRF; presence or absence of 1 μM DETA-NO not given; read-out: % Act. (percent activation relative to maximum cGMP production of Compound A = 100%)

Row | Emax | SMILES
17 | 90% | CC1(c2cccc(F)c2)C(=O)Nc2nc(-c3cn4ncnc4c(CCC(F)(F)C(F)(F)F)n3)nc(N)c21 (centres unmarked) [Example 14B, 4-amino-5-(3-fluorophenyl)-5-methyl-2 (8-(3,3,4,4,4-pentafluorobutyl)-[1,2,4]triazolo[1,5-a]pyrazin-6-yl)-5H-pyrrolo[2,3-d]pyrimidin-6(7H)-one]
